Experiments:
[1] = test system: T1, periplasmic L-ASNase (PCH199 L-ASNase, type II); assay: Michaelis-Menten non-linear regression (assay details not told); format: biochemical, Pseudomonas sp. PCH199; conditions: 0.02-0.5 mM substrate; assay pH and temperature not stated for L-glutamine
T1 construct: gene ansB; native, purified from periplasm by osmotic shock (ammonium sulfate, Q-Sepharose, Superdex 200)

[2] = test system: T1, periplasmic L-ASNase (PCH199 L-ASNase, type II); assay: Nessler ammonia assay at […] nm, non-linear Michaelis-Menten fit; format: biochemical, Pseudomonas sp. PCH199; conditions: 0.1-3.0 mM substrate; standard assay 50 mM Tris-HCl pH 8.5, 37 ℃ (temperature of the kinetic run not restated)

SMILES	Km [1]	Km [2]
NC(=O)CC[C@H](N)C(=O)O [L-glutamine]	34 µM	
NC(=O)C[C@H](N)C(=O)O [L-asparagine]		164 ± 9 µM
